Measured values as given in paper PMC8750417, “Intracellular Amplifiers of Reactive Oxygen Species Affecting Mitochondria as Radiosensitizers” (Cancers, 2021).

System: A2780 cells
Assay: Mechanism of death of A2780 cells (Annexin A5/PI flow cytometry)
Format: cell-based, human
Settings: A2780, 48 h
Protocol: Figure S54. Effect of prodrugs 1 and 2c (48 h incubation) on the intracellular amount of GSH in Jurkat cells. *: p< 0.05; ns: non-significant (Student’s t test). Detailed experimental description is provided above.
Study of the mechanism of death of A2780 cells induced by prodrug 2c and controls A2780 cells were seeded into 96 well culture plates at the same cell concentration and in the same medium as applied for the above described MTT assay (48 h incubation with the prodrugs). The next day, stock solutions of prodrugs of different concentrations (1 µ L, solvent DMSO, final concentrations in wells were 5, 10 and 30 µ M) or carrier only (DMSO, 1 µ L, final concentration 1 %, v/v) were added to the wells and incubated in the chamber filled with CO 2 (5%). After 48 h supernatants were transferred into 1.5 mL Eppendorf tubes and 100 µ L of DPBS was added to transfer supernatant residue into tube. Trypsin (0.25%, 50 µ L) was then added to well to detach the cells. All supernatants in Eppendorf tubes were combined back into wells. After gently pipetting up and down, 50 µ L of cell solutions was transferred into a new Eppendorf tube and incubated with 200 µ L of staining solution, consisting of Annexin A5-Fitc (5 µ L) and propidium iodide (PI, 330 ng) per 1 mL buffer (conc. 1X). […]

In the case of `CC1(C)OB(c2ccc(COC(=O)N(Cc3cn(Cc4ccc(Cn5cc(Cc6ccccc6)nn5)cc4)nn3)[c-]3cccc3)cc2)OC1(C)C.[Fe+2].c1cc[cH-]c1` [2c], the “mechanism of cell death” value is reported as “mainly via necrosis”.
